Results published in patent US20240116892A1, “HETEROCYCLIC AMIDE AND UREA COMPOUNDS AS JAK2 INHIBITORS” (Ajax Therapeutics, Inc., priority 2022, published 2024).

Target: JAK2 (JH1 domain-catalytic, Y1007F, Y1008F) kinase (Homo sapiens (Human), UniProt O60674, Y1007F/Y1008F)
Test: JAK2 JH1 Domain Binding Assay
Conditions: qPCR readout
How it was run: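 JH1 catalytic domain (Y1007F/Y1008F) expressed as NFkB DNA-binding-domain fusion in HEK293 cells, DNA-tagged. Competition with immobilized biotinylated ligand on streptavidin beads, 1 h at RT in PBS/Tween/BSA/DTT; bound kinase eluted with free ligand and quantified by qPCR.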

Sequence of JAK2 (JH1 domain-catalytic, Y1007F, Y1008F) kinase (O60674 849-1124 Y1007F/Y1008F): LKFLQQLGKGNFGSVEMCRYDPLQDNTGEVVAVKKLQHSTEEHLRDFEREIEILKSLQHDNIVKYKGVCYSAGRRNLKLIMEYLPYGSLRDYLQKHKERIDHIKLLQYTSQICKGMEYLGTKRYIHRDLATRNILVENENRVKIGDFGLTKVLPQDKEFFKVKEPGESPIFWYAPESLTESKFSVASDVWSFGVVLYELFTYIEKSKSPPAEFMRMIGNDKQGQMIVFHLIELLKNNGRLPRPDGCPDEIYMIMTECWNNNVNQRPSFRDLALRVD

Row | Kd [nM] | SMILES
1 | 10 to 50 | COCCOc1n[nH]c2ncc(N3CC[C@H](N(C)C(=O)Nc4cc(C(F)(F)F)cn(C)c4=O)C[C@@H]3C)cc12 [Example I-132-a, 1-((2S,4S)-1-(3-(2-methoxyethoxy)-1H-pyrazolo[3,4-b]pyridin-5-yl)-2-methylpiperidin-4-yl)-1-methyl-3-(1-methyl-2-oxo-5-(trifluoromethyl)-1,2-dihydropyridin-3-yl)urea]
2 | 10 to 50 | COCCOc1n[nH]c2ncc(N3CC[C@@H](N(C)C(=O)Nc4cc(C(F)(F)F)cn(C)c4=O)C[C@H]3C)cc12 [Example I-132-b, 1-((2R,4R)-1-(3-(2-methoxyethoxy)-1H-pyrazolo[3,4-b]pyridin-5-yl)-2-methylpiperidin-4-yl)-1-methyl-3-(1-methyl-2-oxo-5-(trifluoromethyl)-1,2-dihydropyridin-3-yl)urea]
3 | < 10 | COc1n[nH]c2ncc(N3CC[C@H](N(C)C(=O)Nc4cc(C(F)(F)F)cn(C)c4=O)C[C@@H]3C)cc12 [Example I-133-a, 1-((2S,4S)-1-(3-methoxy-1H-pyrazolo[3,4-b]pyridin-5-yl)-2-methylpiperidin-4-yl)-1-methyl-3-(1-methyl-2-oxo-5-(trifluoromethyl)-1,2-dihydropyridin-3-yl)urea]
4 | < 10 | COc1n[nH]c2ncc(N3CC[C@@H](N(C)C(=O)Nc4cc(C(F)(F)F)cn(C)c4=O)C[C@H]3C)cc12 [Example I-133-b, 1-((2R,4R)-1-(3-methoxy-1H-pyrazolo[3,4-b]pyridin-5-yl)-2-methylpiperidin-4-yl)-1-methyl-3-(1-methyl-2-oxo-5-(trifluoromethyl)-1,2-dihydropyridin-3-yl)urea]
5 | 50 to 1000 | CC(=O)Nc1cnc(N2CC[C@H](N(C)C(=O)Nc3cc(C(F)(F)F)cn(C)c3=O)C[C@@H]2C)cn1 [Example I-134-a, N-(5-((2S,4S)-2-methyl-4-(1-methyl-3-(1-methyl-2-oxo-5-(trifluoromethyl)-1,2-dihydropyridin-3-yl)ureido)piperidin-1-yl)pyrazin-2-yl)acetamide]
6 | 10 to 50 | CC(=O)Nc1cnc(N2CC[C@@H](N(C)C(=O)Nc3cc(C(F)(F)F)cn(C)c3=O)C[C@H]2C)cn1 [Example I-134-b, N-(5-((2R,4R)-2-methyl-4-(1-methyl-3-(1-methyl-2-oxo-5-(trifluoromethyl)-1,2-dihydropyridin-3-yl)ureido)piperidin-1-yl)pyrazin-2-yl)acetamide]
7 | 10 to 50 | C[C@@H]1C[C@H](N(C)C(=O)Nc2cc(C(C)(C)C)n([C@H]3C[C@H](O)C3)n2)CCN1c1cnc2[nH]ncc2c1 [Example I-135-a, 3-(5-(tert-butyl)-1-((1r,3R)-3-hydroxycyclobutyl)-1H-pyrazol-3-yl)-1-methyl-1-((2R,4R)-2-methyl-1-(1H-pyrazolo[3,4-b]pyridin-5-yl)piperidin-4-yl)urea]
8 | 50 to 1000 | C[C@H]1C[C@@H](N(C)C(=O)Nc2cc(C(C)(C)C)n([C@H]3C[C@H](O)C3)n2)CCN1c1cnc2[nH]ncc2c1 [Example I-135-b, 3-(5-(tert-butyl)-1-((1r,3S)-3-hydroxycyclobutyl)-1H-pyrazol-3-yl)-1-methyl-1-((2S,4S)-2-methyl-1-(1H-pyrazolo[3,4-b]pyridin-5-yl)piperidin-4-yl)urea]
9 | < 10 | COc1n[nH]c2ncc(N3CCC(N(C)C(=O)Nc4cc(C5CC5)cn([C@H]5CCCOC5)c4=O)CC3)cc12 [Example I-136-a, (S)-3-(5-cyclopropyl-2-oxo-1-(tetrahydro-2H-pyran-3-yl)-1,2-dihydropyridin-3-yl)-1-(1-(3-methoxy-1H-pyrazolo[3,4-b]pyridin-5-yl)piperidin-4-yl)-1-methylurea]
10 | < 10 | COc1n[nH]c2ncc(N3CCC(N(C)C(=O)Nc4cc(C5CC5)cn([C@@H]5CCCOC5)c4=O)CC3)cc12 [Example I-136-b, (R)-3-(5-cyclopropyl-2-oxo-1-(tetrahydro-2H-pyran-3-yl)-1,2-dihydropyridin-3-yl)-1-(1-(3-methoxy-1H-pyrazolo[3,4-b]pyridin-5-yl)piperidin-4-yl)-1-methylurea]
11 | 10 to 50 | COc1cc(NC(=O)C2CC2)ncc1N1CCC(N(C)C(=O)Nc2cc(C(F)(F)F)cn(C)c2=O)CC1 [Example I-137, N-(4-methoxy-5-(4-(1-methyl-3-(1-methyl-2-oxo-5-(trifluoromethyl)-1,2-dihydropyridin-3-yl)ureido)piperidin-1-yl)pyridin-2-yl)cyclopropanecarboxamide]
12 | < 10 | COc1n[nH]c2ncc(N3CCC(N(C)C(=O)Nc4cc(C(F)(F)F)ccn4)CC3)cc12 [Example I-138, 1-(1-(3-methoxy-1H-pyrazolo[3,4-b]pyridin-5-yl)piperidin-4-yl)-1-methyl-3-(4-(trifluoromethyl)pyridin-2-yl)urea]
13 | < 10 | COc1n[nH]c2ncc(N3CCC(N(C)C(=O)Nc4cncc(C(F)(F)F)c4)CC3)cc12 [Example I-139, 1-(1-(3-methoxy-1H-pyrazolo[3,4-b]pyridin-5-yl)piperidin-4-yl)-1-methyl-3-(5-(trifluoromethyl)pyridin-3-yl)urea]
14 | < 10 | CC(=O)Nc1cnc(C2=CC[C@@H](N(C)C(=O)Nc3cc(C(F)(F)F)cn(C)c3=O)CC2)cn1 [Example I-140-a, (S)—N-(5-(4-(1-methyl-3-(1-methyl-2-oxo-5-(trifluoromethyl)-1,2-dihydropyridin-3-yl)ureido)cyclohex-1-en-1-yl)pyrazin-2-yl)acetamide]
15 | < 10 | CC(=O)Nc1cnc(C2=CC[C@H](N(C)C(=O)Nc3cc(C(F)(F)F)cn(C)c3=O)CC2)cn1 [Example I-140-b, (R)—N-(5-(4-(1-methyl-3-(1-methyl-2-oxo-5-(trifluoromethyl)-1,2-dihydropyridin-3-yl)ureido)cyclohex-1-en-1-yl)pyrazin-2-yl)acetamide]
16 | 50 to 1000 | Cn1cc(C(F)(F)F)cc(NC(=O)N(C)[C@H]2CC[C@@H](c3cnc4[nH]cc(N5CCOCC5)c4n3)CC2)c1=O [Example I-142, cis-1-methyl-3-(1-methyl-2-oxo-5-(trifluoromethyl)-1,2-dihydropyridin-3-yl)-1-(4-(7-morpholino-5H-pyrrolo[2,3-b]pyrazin-2-yl)cyclohexyl)urea]
17 | < 10 | CNc1c[nH]c2ncc([C@H]3CC[C@H](N(C)C(=O)Nc4cc(C(F)(F)F)cn(C)c4=O)CC3)nc12 [Example I-144, trans-1-methyl-3-(1-methyl-2-oxo-5-(trifluoromethyl)-1,2-dihydropyridin-3-yl)-1-(4-(7-(methylamino)-5H-pyrrolo[2,3-b]pyrazin-2-yl)cyclohexyl)urea]
18 | < 10 | CNc1c[nH]c2ncc([C@H]3CC[C@@H](N(C)C(=O)Nc4cc(C(F)(F)F)cn(C)c4=O)CC3)nc12 [Example I-145, 1-methyl-3-(1-methyl-2-oxo-5-(trifluoromethyl)-1,2-dihydropyridin-3-yl)-1-((1s,4s)-4-(7-(methylamino)-5H-pyrrolo[2,3-b]pyrazin-2-yl)cyclohexyl)urea]
19 | < 10 | Cn1cc(C(F)(F)F)cc(NC(=O)N2CCO[C@H]3CN(c4cnc(NC(=O)C5CC5)cn4)CC[C@@H]32)c1=O [Example I-148-a, ((4aS,8aS)-6-(5-(cyclopropanecarboxamido)pyrazin-2-yl)-N-(1-methyl-2-oxo-5-(trifluoromethyl)-1,2-dihydropyridin-3-yl)octahydro-1H-pyrido[3,4-b][1,4]oxazine-1-carboxamide and (4aR,8aR)-6-(5-(cyclopropanecarboxamido)pyrazin-2-yl)-N-(1-methyl-2-oxo-5-(trifluoromethyl)-1,2-dihydropyridin-3-yl)octahydro-1H-pyrido[3,4-b][1,4]oxazine-1-carboxamide]
20 | < 10 | COc1c[nH]c2ncc(N3CC[C@H](N(C)C(=O)Nc4cc(C(F)(F)F)cn(C)c4=O)[C@@H](F)C3)nc12 [Example I-149, 1-((3S,4S)-3-fluoro-1-(7-methoxy-5H-pyrrolo[2,3-b]pyrazin-2-yl)piperidin-4-yl)-1-methyl-3-(1-methyl-2-oxo-5-(trifluoromethyl)-1,2-dihydropyridin-3-yl)urea]
21 | < 10 | COc1c[nH]c2ncc(N3CC[C@@H](N(C)C(=O)Nc4cc(C(F)(F)F)cn(C)c4=O)[C@H](F)C3)nc12 [Example I-150, 1-((3R,4R)-3-fluoro-1-(7-methoxy-5H-pyrrolo[2,3-b]pyrazin-2-yl)piperidin-4-yl)-1-methyl-3-(1-methyl-2-oxo-5-(trifluoromethyl)-1,2-dihydropyridin-3-yl)urea]
22 | < 10 | COc1c[nH]c2ncc(N3CC[C@H](N(C)C(=O)Nc4cc(C(F)(F)F)cn(C)c4=O)[C@H](F)C3)nc12 [Example I-151, 1-((3R,4S)-3-fluoro-1-(7-methoxy-5H-pyrrolo[2,3-b]pyrazin-2-yl)piperidin-4-yl)-1-methyl-3-(1-methyl-2-oxo-5-(trifluoromethyl)-1,2-dihydropyridin-3-yl)urea]
23 | < 10 | COc1c[nH]c2ncc(N3CC[C@@H](N(C)C(=O)Nc4cc(C(F)(F)F)cn(C)c4=O)[C@@H](F)C3)nc12 [Example I-152, 1-((3S,4R)-3-fluoro-1-(7-methoxy-5H-pyrrolo[2,3-b]pyrazin-2-yl)piperidin-4-yl)-1-methyl-3-(1-methyl-2-oxo-5-(trifluoromethyl)-1,2-dihydropyridin-3-yl)urea]
24 | < 10 | [2H]C1([2H])C[C@@H](N(C)C(=O)Nc2cc(C(F)(F)F)cn(C)c2=O)[C@H](OC)C([2H])([2H])N1c1cnc2[nH]ncc2c1 [Example I-153-a, 1-((3R,4R)-3-methoxy-1-(1H-pyrazolo[3,4-b]pyridin-5-yl)piperidin-4-yl-2,2,6,6-d4)-1-methyl-3-(1-methyl-2-oxo-5-(trifluoromethyl)-1,2-dihydropyridin-3-yl)urea]
25 | 10 to 50 | [2H]C1([2H])C[C@H](N(C)C(=O)Nc2cc(C(F)(F)F)cn(C)c2=O)[C@@H](OC)C([2H])([2H])N1c1cnc2[nH]ncc2c1 [Example I-153-b, 1-((3S,4S)-3-methoxy-1-(1H-pyrazolo[3,4-b]pyridin-5-yl)piperidin-4-yl-2,2,6,6-d4)-1-methyl-3-(1-methyl-2-oxo-5-(trifluoromethyl)-1,2-dihydropyridin-3-yl)urea]
